From EP4703357A1, “TRIAZOLYL-CONTAINING COMPOUNDS” (Chia Tai Tianqing Pharmaceutical Group Co., Ltd., priority 2023, dated 2024)
Where two headings read alike, the source gives them in different places.

Tests used:
[1] = test system: Jurkat cells; assay: Inhibitory activity on Jurkat cell proliferation (CCK-8); type: cell-based; details: Homo sapiens, 72 h incubation
Description: (§1) Jurkat cells in a good growth state were collected into a centrifuge tube, adjusted to a cell density of 5 × 10^4 cells/mL, and seeded in a 96-well plate (100 µL/well). The cells were incubated overnight in a cell incubator. Compounds were added using a nanoliter pipettor such that the final concentrations of the compounds were 1000 nM-0.46 nM (the addition was performed in duplicate). Meanwhile, a control was set. After another 72 h of incubation in the cell incubator, the assay reagent CCK-8 (manufacturer: Dojindo Laboratories, Beijing; 10 µL/well) was added. After 2 h of incubation in the cell incubator, absorbance was measured at 450 nm on an Envision microplate reader. A four-parameter analysis was performed, a dose-response curve was fit, and IC50 was calculated.

[2] = test system: OCI-LY10 cells; assay: Inhibitory activity on OCI-LY10 cell proliferation (CCK-8); type: cell-based; details: Homo sapiens, 72 h incubation
Description: as §1, with “OCI-LY10 cells” for “Jurkat cells”, “of 9” for “of 5”

[3] = In vitro liver microsomal stability, mouse; type: in vitro ADME; details: mouse liver microsome 0.5 mg/mL, NADPH, 37 °C, 1 h
Description: (§2) Liver microsome incubation samples were prepared by mixing a PBS buffer (pH = 7.4), a liver microsome solution (0.5 mg/mL), a test compound, and an NADPH + MgCl2 solution, and incubated at 37 °C and 300 rpm for 1 h. Zero-hour samples were prepared by mixing a PBS buffer (pH = 7.4), a liver microsome solution (0.5 mg/mL), and a test compound. An acetonitrile solution containing an internal standard was added to the samples, and supernatants were prepared by protein precipitation, diluted, and then assayed by LC/MS/MS. Table 17. In vitro metabolic stability of related compounds in liver microsomes of various species

[4] = In vitro liver microsomal stability, human; type: in vitro ADME; details: human liver microsome 0.5 mg/mL, NADPH, 37 °C, 1 h
Description: as §2

[5] = Mouse pharmacokinetics; type: in vivo; details: ICR, plasma, po, 3 mg/kg, Mice administered intragastrically 3 mpk; for AUC(0-t): read-out: AUC (0-24)
Description: ICR mice weighing 18-22 g were randomized into groups of 9 mice per group after 3-5 days of acclimatization and then administered intragastrically at a dose of 3 mg/kg.
Plasma samples to be tested were prepared by taking blood from the orbit at time points of 15 min, 30 min, 1 h, 2 h, 4 h, 6 h, 8 h, 10 h, and 24 h.
20 µL of each plasma sample to be tested and a standard curve sample were taken, and an acetonitrile solution containing an internal standard was added. A supernatant was obtained by protein precipitation, diluted, and then assayed by LC/MS/MS.
Pharmacokinetic parameters were fitted using a non-compartmental model.

[6] = Mouse pharmacokinetics; type: in vivo, ICR mice; details: ICR, plasma; for AUC(0-t): read-out: AUC (0-24)
[7] = 1 mg/kg, Mice administered by single intravenous injection 1 mpk
[8] = po, 3 mg/kg, Mice administered intragastrically 3 mpk

| SMILES | IC50 [1] [nM] | IC50 [2] [nM] | Mouse liver microsome Residuals at 60 min (%) [3] [%] | Human liver microsome Residuals at 60 min (%) [4] [%] | further results |
| --- | --- | --- | --- | --- | --- |
| NC(=O)/C(=C/n1cnc(-c2cc(C3CC3)nc(C(F)(F)F)c2)n1)c1ccc(NCC(F)F)nc1 [Compound 41] | ≤ 20 | ≤ 40 |  |  |  |
| N#Cc1cncc(/C(=C\n2cnc(-c3cc(C4CC4)nc(C(F)(F)F)c3)n2)C(N)=O)c1 [Compound 30] | ≤ 20 | ≤ 40 | 89.94 | 98.75 |  |
| NC(=O)/C(=C/n1cnc(-c2cc(C(F)(F)F)nc(C(F)(F)F)c2)n1)c1cnc(NCC(F)(F)F)nc1 [Compound 4] | ≤ 20 | ≤ 40 | 93.27 | 100.33 |  |
| NC(=O)/C(=C/n1cnc(-c2cc(C3CC3)nc(C(F)(F)F)c2)n1)c1ccc2ncccc2c1 [Compound 57] | ≤ 20 | ≤ 40 |  |  |  |
| NC(=O)/C(=C/n1cnc(-c2cc(C3CC3)nc(C(F)(F)F)c2)n1)c1cccnc1F [Compound 32] | ≤ 20 | ≤ 40 | 95.08 | 100.32 |  |
| NC(=O)/C(=C/n1cnc(-c2cc(C(F)(F)F)nc(C(F)(F)F)c2)n1)c1ccc(NCC(F)(F)F)nc1 [Compound 46] | ≤ 20 | ≤ 40 |  |  |  |
| NC(=O)/C(=C/n1cnc(-c2cc(C3CC3)nc(C(F)(F)F)c2)n1)c1ccncc1 [Compound 43] | ≤ 20 | ≤ 40 |  |  |  |
| NC(=O)/C(=C/n1cnc(-c2cc(C3CC3)nc(C(F)(F)F)c2)n1)c1cnc2ccccc2c1 [Compound 26] | ≤ 20 | ≤ 40 | 90.27 | 96.64 |  |
| NC(=O)C(=Cn1cnc(-c2cc(C(F)(F)F)nc(C(F)(F)F)c2)n1)c1cncnc1 [Compound 1] | ≤ 20 | ≤ 40 | 97.97 | 101.38 |  |
| CC(F)(F)CNc1ncc(/C(=C\n2cnc(-c3cc(C(F)(F)F)nc(C(F)(F)F)c3)n2)C(N)=O)cn1 [3(3-A)] | ≤ 20 | ≤ 40 | 94.26 | 95.65 | Cmax [5]: 681 ng/mL; Tmax [5]: 3 h; half-life [5]: 2.8 h; AUC(0-t) [5]: 5280 ng·h/mL; AUC(0-inf) [6, 7]: 1570 ng·h/mL; clearance [6, 7]: 10.6 mL/min/kg; half-life [6, 7]: 1.66 h; AUC(0-t) [6, 7]: 1540 ng·h/mL; AUC(0-inf) [6, 8]: 5300 ng·h/mL |
| NC(=O)/C(=C/n1cnc(-c2cc(C(F)(F)F)nc(C(F)(F)F)c2)n1)c1ccc(C(F)(F)F)nc1 [Compound 53] | ≤ 20 | ≤ 40 |  |  |  |
| NC(=O)/C(=C/n1cnc(-c2cc(C3CC3)nc(C(F)(F)F)c2)n1)c1ccnc(F)c1 [Compound 36] | ≤ 20 | ≤ 40 |  |  |  |
| NC(=O)/C(=C/n1cnc(-c2cc(C3CC3)nc(C(F)(F)F)c2)n1)c1cccc(F)n1 [Compound 37] | ≤ 20 | ≤ 40 |  |  |  |
| NC(=O)/C(=C/n1cnc(-c2cc(C3CC3)nc(C(F)(F)F)c2)n1)c1ccc2cccnc2c1 [59(59-A)] | ≤ 20 | ≤ 40 |  |  |  |
| NC(=O)/C(=C/n1cnc(-c2cc(C(F)(F)F)nc(C(F)(F)F)c2)n1)c1ccc(NCC(F)F)nc1 [Compound 54] | ≤ 20 | ≤ 40 |  |  |  |
| N#Cc1cncc(/C(=C\n2cnc(-c3cc(C(F)(F)F)nc(C(F)(F)F)c3)n2)C(N)=O)c1 [Compound 10] | ≤ 20 | ≤ 40 | 93.99 | 95.75 |  |
| NC(=O)/C(=C/n1cnc(-c2cc(C3CC3)nc(C(F)(F)F)c2)n1)c1cnc2cccnc2c1 [Compound 33] | ≤ 20 | ≤ 40 | 98.21 | 104.79 |  |

Second part, led by results:

| IC50 [1] [nM] | IC50 [2] [nM] | Mouse liver microsome Residuals at 60 min (%) [3] [%] | Human liver microsome Residuals at 60 min (%) [4] [%] | SMILES | further results |
| --- | --- | --- | --- | --- | --- |
| ≤ 20 | ≤ 40 | 83.14 | 80.48 | NC(=O)/C(=C/n1cnc(-c2cc(C3CC3)nc(C(F)(F)F)c2)n1)c1cnc(NCC(F)F)nc1 [Compound 14] |  |
| ≤ 20 | ≤ 40 | 87.82 | 92.23 | NC(=O)/C(=C/n1cnc(-c2cc(C(F)(F)F)nc(C(F)(F)F)c2)n1)c1cnc(NCC(F)F)nc1 [2(2-A)] | Cmax [5]: 483 ng/mL; Tmax [5]: 3 h; half-life [5]: 2.57 h; AUC(0-t) [5]: 2730 ng·h/mL; AUC(0-inf) [6, 7]: 879 ng·h/mL; clearance [6, 7]: 19 mL/min/kg; half-life [6, 7]: 1.26 h; AUC(0-t) [6, 7]: 874 ng·h/mL; AUC(0-inf) [6, 8]: 2730 ng·h/mL |
| ≤ 20 | ≤ 40 | 95.11 | 93.92 | C[C@@H](Nc1ncc(/C(=C\n2cnc(-c3cc(C4CC4)nc(C(F)(F)F)c3)n2)C(N)=O)cn1)C(F)(F)F [Compound 17] |  |
| ≤ 20 | ≤ 40 | 90.60 | 88.75 | NC(=O)/C(=C/n1cnc(-c2cc(C3CC3)nc(C(F)(F)F)c2)n1)c1cnc(NCC(F)(F)F)nc1 [Compound 16] |  |
| ≤ 20 | ≤ 40 | 88.38 | 87.55 | CC(F)(F)CNc1ncc(/C(=C\n2cnc(-c3cc(C4CC4)nc(C(F)(F)F)c3)n2)C(N)=O)cn1 [15(15-A)] | Cmax [5]: 599 ng/mL; Tmax [5]: 3 h; half-life [5]: 3.48 h; AUC(0-t) [5]: 4600 ng·h/mL; AUC(0-inf) [6, 7]: 1630 ng·h/mL; clearance [6, 7]: 10.2 mL/min/kg; half-life [6, 7]: 1.34 h; AUC(0-t) [6, 7]: 1620 ng·h/mL; AUC(0-inf) [6, 8]: 4650 ng·h/mL |
| ≤ 20 | ≤ 40 |  |  | NC(=O)/C(=C/n1cnc(-c2cc(C3CC3)nc(C(F)(F)F)c2)n1)c1ccc(C(F)(F)F)nc1 [Compound 60] |  |
| ≤ 20 | ≤ 40 | 83.25 | 102.40 | Cc1ccc(/C(=C\n2cnc(-c3cc(C4CC4)nc(C(F)(F)F)c3)n2)C(N)=O)cn1 [38(38-A)] | Cmax [5]: 874 ng/mL; Tmax [5]: 1 h; half-life [5]: 2.55 h; AUC(0-t) [5]: 3480 ng·h/mL; AUC(0-inf) [6, 7]: 1040 ng·h/mL; clearance [6, 7]: 16 mL/min/kg; half-life [6, 7]: 1.41 h; AUC(0-t) [6, 7]: 1040 ng·h/mL; AUC(0-inf) [6, 8]: 3800 ng·h/mL |
| ≤ 20 | ≤ 40 |  |  | NC(=O)/C(=C/n1cnc(-c2cc(C3CC3)nc(C(F)(F)F)c2)n1)c1ccc(NCC(F)(F)F)nc1 [Compound 40] |  |
| ≤ 20 | ≤ 40 | 99.03 | 97.64 | C[C@@H](Nc1ncc(/C(=C\n2cnc(-c3cc(C(F)(F)F)nc(C(F)(F)F)c3)n2)C(N)=O)cn1)C(F)(F)F [Compound 5] |  |
| ≤ 20 | ≤ 40 | 89.18 | 106.91 | NC(=O)/C(=C/n1cnc(-c2cc(C3CC3)nc(C(F)(F)F)c2)n1)c1ccc(F)nc1 [Compound 39] |  |
| ≤ 20 | ≤ 40 | 91.15 | 93.23 | NC(=O)/C(=C/n1cnc(-c2cc(C3CC3)nc(C(F)(F)F)c2)n1)c1cncnc1 [Compound 13] |  |
